Source: patent US5763404A, “Methods for using LHRH antagonists with low histamine release” (priority 1995, dated 1998)
Starred links: 1 amine or outer side, 2 acyl side, 3 side chain; linkers in the order of their positions; H or OH if unused. Non-standard residues stand in square brackets, D forms with d. Residues, ends and D or L forms follow the SMILES beside them. *: point of attachment. dAla(cis-4-NHCOPyz-cHex) = N[C@H](C[C@H]1CC[C@@H](NC(=O)c2cnccn2)CC1)C(=O)O; X2 = O=C(N[C@H]1CC[C@@H](C[C@H](N[*:1])C(=O)[*:2])CC1)c1cnccn1; dPhe(3,4-Cl2) = N[C@H](Cc1ccc(Cl)c(Cl)c1)C(=O)O; dPhe(4-Cl) = N[C@H](Cc1ccc(Cl)cc1)C(=O)O; X10 = O=C([C@@H](Cc1cnccn1)N[*:1])[*:2]; d2Nal = N[C@H](Cc1ccc2ccccc2c1)C(=O)O; Lys(iPr) = CC(C)NCCCC[C@H](N)C(=O)O; Orn(iPr) = CC(C)NCCC[C@H](N)C(=O)O; Pyrazinecarbonyl = O=C(c1cnccn1)*; aIle = CC[C@@H](C)[C@H](N)C(=O)O; d3Pal = N[C@H](Cc1cccnc1)C(=O)O; Nicotinoyl = O=C(c1cccnc1)*; Picolinoyl = O=C(c1ccccn1)*; Pip = O=C(O)[C@@H]1CCCCN1; Nle = CCCC[C@H](N)C(=O)O; dAbu = CC[C@@H](N)C(=O)O; Nva = CCC[C@H](N)C(=O)O; Abu = CC[C@H](N)C(=O)O; X12 = O=C(c1ccncn1)*

system: anaesthesized rats; experiment: wheal test, intradermal injection; assay type: in vivo, rat; design: Wheal (wheal response): unit not given here; conditions: 10 ug peptide intradermally
Summary of the method: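 Anaesthetized rats given intradermal injection of 10 ug peptide in 100 ul saline; area of the wheal calculated from its diameter.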

SMILES | Wheal Area [mm^2 /10 μg]
CC[C@@H](C)[C@H](NC(=O)[C@@H](CCCCNC(=O)c1ccccn1)NC(=O)[C@H](CCCCNC(=O)c1ccccn1)NC(=O)[C@H](CO)NC(=O)[C@@H](Cc1cccnc1)NC(=O)[C@@H](Cc1ccc(Cl)cc1)NC(=O)[C@@H](Cc1ccc2ccccc2c1)NC(C)=O)C(=O)N[C@@H](CCCCNC(C)C)C(=O)N1CCC[C@H]1C(=O)N[C@H](C)C(N)=O [compound 25936] (Ac-[d2Nal][dPhe(4-Cl)][d3Pal]SK(Picolinoyl)[dK](Picolinoyl)[aIle][Lys(iPr)]P[dA]-NH2) | 97.9 ± 2.9
CC(=O)N[C@H](Cc1ccc2ccccc2c1)C(=O)N[C@H](Cc1ccc(Cl)cc1)C(=O)N[C@H](Cc1cccnc1)C(=O)N[C@@H](CO)C(=O)N[C@@H](CCCCNC(=O)c1ccccn1)C(=O)N[C@H](CCCCNC(=O)c1ccccn1)C(=O)N[C@@H](CC(C)C)C(=O)N[C@@H](CCCCNC(C)C)C(=O)N1CCCC[C@H]1C(=O)N[C@H](C)C(N)=O [compound 25937] (Ac-[d2Nal][dPhe(4-Cl)][d3Pal]SK(Picolinoyl)[dK](Picolinoyl)L[Lys(iPr)][Pip][dA]-NH2) | 95.0 ± 0
CCCC[C@H](NC(=O)[C@@H](CCCCNC(=O)c1ccccn1)NC(=O)[C@H](CCCCNC(=O)c1ccccn1)NC(=O)[C@H](CO)NC(=O)[C@@H](Cc1cccnc1)NC(=O)[C@@H](Cc1ccc(Cl)cc1)NC(=O)[C@@H](Cc1ccc2ccccc2c1)NC(C)=O)C(=O)N[C@@H](CCCCNC(C)C)C(=O)N1CCC[C@H]1C(=O)N[C@H](C)C(N)=O [compound 25988] (Ac-[d2Nal][dPhe(4-Cl)][d3Pal]SK(Picolinoyl)[dK](Picolinoyl)[Nle][Lys(iPr)]P[dA]-NH2) | 107.0 ± 6.0
CCC[C@H](NC(=O)[C@@H](CCCCNC(=O)c1ccccn1)NC(=O)[C@H](CCCCNC(=O)c1ccccn1)NC(=O)[C@H](CO)NC(=O)[C@@H](Cc1cccnc1)NC(=O)[C@@H](Cc1ccc(Cl)cc1)NC(=O)[C@@H](Cc1ccc2ccccc2c1)NC(C)=O)C(=O)N[C@@H](CCCCNC(C)C)C(=O)N1CCC[C@H]1C(=O)N[C@H](C)C(N)=O [compound 25989] (Ac-[d2Nal][dPhe(4-Cl)][d3Pal]SK(Picolinoyl)[dK](Picolinoyl)[Nva][Lys(iPr)]P[dA]-NH2) | 95.3 ± 6.0
CC[C@H](NC(=O)[C@@H](CCCCNC(=O)c1ccccn1)NC(=O)[C@H](CCCCNC(=O)c1ccccn1)NC(=O)[C@H](CO)NC(=O)[C@@H](Cc1cccnc1)NC(=O)[C@@H](Cc1ccc(Cl)cc1)NC(=O)[C@@H](Cc1ccc2ccccc2c1)NC(C)=O)C(=O)N[C@@H](CCCCNC(C)C)C(=O)N1CCC[C@H]1C(=O)N[C@H](C)C(N)=O [compound 25990] (Ac-[d2Nal][dPhe(4-Cl)][d3Pal]SK(Picolinoyl)[dK](Picolinoyl)[Abu][Lys(iPr)]P[dA]-NH2) | 91.0 ± 5.4
CC(=O)N[C@H](Cc1ccc2ccccc2c1)C(=O)N[C@H](Cc1ccc(Cl)cc1)C(=O)N[C@H](Cc1cccnc1)C(=O)N[C@@H](CO)C(=O)N[C@@H](CCCCNC(=O)c1cccnc1)C(=O)N[C@H](CCCCNC(=O)c1cnccn1)C(=O)N[C@@H](CC(C)C)C(=O)N[C@@H](CCCNC(C)C)C(=O)N1CCC[C@H]1C(=O)N[C@H](C)C(N)=O [compound 25991] (Ac-[d2Nal][dPhe(4-Cl)][d3Pal]SK(Nicotinoyl)[dK](Pyrazinecarbonyl)L[Orn(iPr)]P[dA]-NH2) | 104.3 ± 10.5
CC[C@@H](NC(=O)[C@@H]1CCCN1C(=O)[C@H](CCCCNC(C)C)NC(=O)[C@H](CC(C)C)NC(=O)[C@@H](CCCCNC(=O)c1ccccn1)NC(=O)[C@H](CCCCNC(=O)c1ccccn1)NC(=O)[C@H](CO)NC(=O)[C@@H](Cc1cccnc1)NC(=O)[C@@H](Cc1ccc(Cl)cc1)NC(=O)[C@@H](Cc1ccc2ccccc2c1)NC(C)=O)C(N)=O [compound 26019] (Ac-[d2Nal][dPhe(4-Cl)][d3Pal]SK(Picolinoyl)[dK](Picolinoyl)L[Lys(iPr)]P[dAbu]-NH2) | 109.9 ± 3.0
CC[C@H](C)[C@H](NC(=O)[C@@H](CCCCNC(=O)c1ccccn1)NC(=O)[C@H](CCCCNC(=O)c1ccccn1)NC(=O)[C@H](CO)NC(=O)[C@@H](Cc1cccnc1)NC(=O)[C@@H](Cc1ccc(Cl)cc1)NC(=O)[C@@H](Cc1ccc2ccccc2c1)NC(C)=O)C(=O)N[C@@H](CCCCNC(C)C)C(=O)N1CCC[C@H]1C(=O)N[C@H](C)C(N)=O [compound 26020] (Ac-[d2Nal][dPhe(4-Cl)][d3Pal]SK(Picolinoyl)[dK](Picolinoyl)I[Lys(iPr)]P[dA]-NH2) | 110.7 ± 2.3
CC(=O)N[C@H](Cc1ccc2ccccc2c1)C(=O)N[C@H](Cc1ccc(Cl)cc1)C(=O)N[C@H](Cc1cccnc1)C(=O)N[C@@H](CO)C(=O)N[C@@H](CCCCNC(=O)c1ccccn1)C(=O)N[C@H](CCCCNC(=O)c1ccccn1)C(=O)N[C@@H](C)C(=O)N[C@@H](CCCCNC(C)C)C(=O)N1CCC[C@H]1C(=O)N[C@H](C)C(N)=O [compound 26099] (Ac-[d2Nal][dPhe(4-Cl)][d3Pal]SK(Picolinoyl)[dK](Picolinoyl)A[Lys(iPr)]P[dA]-NH2) | 103.9 ± 3.7
CC(=O)N[C@H](Cc1ccc(Cl)c(Cl)c1)C(=O)N[C@H](Cc1ccc(Cl)cc1)C(=O)N[C@H](Cc1cccnc1)C(=O)N[C@@H](CO)C(=O)N[C@@H](CCCCNC(=O)c1ccccn1)C(=O)N[C@H](CCCCNC(=O)c1ccccn1)C(=O)N[C@@H](CC(C)C)C(=O)N[C@@H](CCCCNC(C)C)C(=O)N1CCC[C@H]1C(=O)N[C@H](C)C(N)=O [compound 26100] (Ac-[dPhe(3,4-Cl2)][dPhe(4-Cl)][d3Pal]SK(Picolinoyl)[dK](Picolinoyl)L[Lys(iPr)]P[dA]-NH2) | 116.2 ± 3.7
CC(=O)N[C@H](Cc1ccc2ccccc2c1)C(=O)N[C@H](Cc1ccc(Cl)cc1)C(=O)N[C@H](Cc1cccnc1)C(=O)N[C@@H](CO)C(=O)N[C@@H](CCCCNC(=O)c1ccccn1)C(=O)N[C@H](CCCCNC(=O)c1ccccn1)C(=O)N[C@H](C(=O)N[C@@H](CCCNC(C)C)C(=O)N1CCC[C@H]1C(=O)N[C@H](C)C(N)=O)C(C)C [compound 26118] (Ac-[d2Nal][dPhe(4-Cl)][d3Pal]SK(Picolinoyl)[dK](Picolinoyl)V[Orn(iPr)]P[dA]-NH2) | 119.6 ± 6.6
CC(=O)N[C@H](Cc1ccc2ccccc2c1)C(=O)N[C@H](Cc1ccc(Cl)cc1)C(=O)N[C@H](Cc1cnccn1)C(=O)N[C@@H](CO)C(=O)N[C@@H](CCCCNC(=O)c1ccccn1)C(=O)N[C@H](CCCCNC(=O)c1ccccn1)C(=O)N[C@@H](CC(C)C)C(=O)N[C@@H](CCCNC(C)C)C(=O)N1CCC[C@H]1C(=O)N[C@H](C)C(N)=O [compound 26119] (Ac-[d2Nal][dPhe(4-Cl)][X10]SK(Picolinoyl)[dK](Picolinoyl)L[Orn(iPr)]P[dA]-NH2) | 103.9 ± 3.4
CC(=O)N[C@H](Cc1ccc2ccccc2c1)C(=O)N[C@H](Cc1ccc(Cl)cc1)C(=O)N[C@H](Cc1c[nH]c2ccccc12)C(=O)N[C@@H](CO)C(=O)N[C@@H](CCCCNC(=O)c1ccccn1)C(=O)N[C@H](CCCCNC(=O)c1ccccn1)C(=O)N[C@@H](CC(C)C)C(=O)N[C@@H](CCCCNC(C)C)C(=O)N1CCC[C@H]1C(=O)N[C@H](C)C(N)=O [compound 26177] (Ac-[d2Nal][dPhe(4-Cl)][dW]SK(Picolinoyl)[dK](Picolinoyl)L[Lys(iPr)]P[dA]-NH2) | 71.0 ± 4.3
CC[C@@H](C)[C@H](NC(=O)[C@@H](CCCCNC(=O)c1ccccn1)NC(=O)[C@H](CCCCNC(=O)c1ccccn1)NC(=O)[C@H](CO)NC(=O)[C@@H](Cc1cccnc1)NC(=O)[C@@H](Cc1ccc(Cl)cc1)NC(=O)[C@@H](Cc1ccc2ccccc2c1)NC(C)=O)C(=O)N[C@@H](CCCNC(C)C)C(=O)N1CCC[C@H]1C(=O)N[C@H](C)C(N)=O [compound 26178] (Ac-[d2Nal][dPhe(4-Cl)][d3Pal]SK(Picolinoyl)[dK](Picolinoyl)[aIle][Orn(iPr)]P[dA]-NH2) | 78.6 ± 4.5
CC[C@H](NC(=O)[C@@H](CCCCNC(=O)c1ccccn1)NC(=O)[C@H](CCCCNC(=O)c1ccccn1)NC(=O)[C@H](CO)NC(=O)[C@@H](Cc1cccnc1)NC(=O)[C@@H](Cc1ccc(Cl)cc1)NC(=O)[C@@H](Cc1ccc2ccccc2c1)NC(C)=O)C(=O)N[C@@H](CCCNC(C)C)C(=O)N1CCC[C@H]1C(=O)N[C@H](C)C(N)=O [compound 26179] (Ac-[d2Nal][dPhe(4-Cl)][d3Pal]SK(Picolinoyl)[dK](Picolinoyl)[Abu][Orn(iPr)]P[dA]-NH2) | 101.5 ± 9.3
CC(=O)N[C@H](Cc1ccc2ccccc2c1)C(=O)N[C@H](Cc1ccc(Cl)cc1)C(=O)N[C@H](Cc1cccnc1)C(=O)N[C@@H](CO)C(=O)N[C@@H](C[C@H]1CC[C@@H](NC(=O)c2cnccn2)CC1)C(=O)N[C@H](CCCCNC(=O)c1ccccn1)C(=O)N[C@@H](CC(C)C)C(=O)N[C@@H](CCCCNC(C)C)C(=O)N1CCC[C@H]1C(=O)N[C@H](C)C(N)=O [compound 26180] (Ac-[d2Nal][dPhe(4-Cl)][d3Pal]S[X2][dK](Picolinoyl)L[Lys(iPr)]P[dA]-NH2) | 99.5 ± 4.5
CC(=O)N[C@H](Cc1ccc2ccccc2c1)C(=O)N[C@H](Cc1ccc(Cl)cc1)C(=O)N[C@H](Cc1cccnc1)C(=O)N[C@@H](CO)C(=O)N[C@@H](CCCCNC(=O)c1ccncn1)C(=O)N[C@H](CCCCNC(=O)c1ccncn1)C(=O)N[C@@H](CC(C)C)C(=O)N[C@@H](CCCCNC(C)C)C(=O)N1CCC[C@H]1C(=O)N[C@H](C)C(N)=O [compound 26322] (Ac-[d2Nal][dPhe(4-Cl)][d3Pal]SK(X12)[dK](X12)L[Lys(iPr)]P[dA]-NH2) | 130.2 ± 2.5

same assay, conditions: Table XIV and text, unit not given

SMILES | Wheal (wheal response)
CC(=O)N[C@H](Cc1ccc2ccccc2c1)C(=O)N[C@H](Cc1ccc(Cl)cc1)C(=O)N[C@H](Cc1cccnc1)C(=O)N[C@@H](CO)C(=O)N[C@@H](C[C@H]1CC[C@@H](NC(=O)c2cnccn2)CC1)C(=O)N[C@H](CCCCNC(=O)c1ccccn1)C(=O)N[C@@H](CC(C)C)C(=O)N[C@@H](CCCCNC(C)C)C(=O)N1CCC[C@H]1C(=O)N[C@H](C)C(N)=O [compound 26180] (Ac-[d2Nal][dPhe(4-Cl)][d3Pal]S[X2][dK](Picolinoyl)L[Lys(iPr)]P[dA]-NH2) | 99.5 ± 4.5
CC(=O)N[C@H](Cc1ccc2ccccc2c1)C(=O)N[C@H](Cc1ccc(Cl)cc1)C(=O)N[C@H](Cc1cccnc1)C(=O)N[C@@H](CO)C(=O)N[C@@H](CCCCNC(=O)c1ccccn1)C(=O)N[C@H](C[C@H]1CC[C@@H](NC(=O)c2cnccn2)CC1)C(=O)N[C@@H](CC(C)C)C(=O)N[C@@H](CCCNC(C)C)C(=O)N1CCC[C@H]1C(=O)N[C@H](C)C(N)=O [compound 26181] (Ac-[d2Nal][dPhe(4-Cl)][d3Pal]SK(Picolinoyl)[dAla(cis-4-NHCOPyz-cHex)]L[Orn(iPr)]P[dA]-NH2) | 101.6 ± 2.2
